# According to ChEMBL document CHEMBL1201862, “PubChem BioAssay data set” (2004):
#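 These data come from cells grown in 96-well plates and exposed to compound for 48 hours at five concentrations. Abbreviation: GI50, concentration required for 50% inhibition of growth.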 Activity calls are given as the source filed them. Cut-off read from the data, not from the text of the source: active = GI50 up to about 1.1 µM and inactive = higher.
# Tests used:
# Assay in all cases: NCI tumour cell line growth inhibition, 48 h
# [1] = system: 786-0
# [2] = system: CAKI-1
# [3] = system: CCRF-CEM
# [4] = system: COLO 205
# [5] = system: DLD-1
# [6] = system: DMS-114
# [7] = system: DMS-273
# [8] = system: HCC 2998
# [9] = system: HCT-116
# [10] = system: HL-60
# [11] = system: HOP-62
# [12] = system: HOP-92
# [13] = system: IGROV-1
# [14] = system: K562
# [15] = system: LXFL 529
# [16] = system: M14
# [17] = system: M19-MEL
# [18] = system: MOLT-4
# [19] = system: Malme-3M
# [20] = system: NCI-H226
# [21] = system: NCI-H23
# [22] = system: NCI-H522
# [23] = system: OVCAR-4
# [24] = system: RPMI-8226
# [25] = system: RXF 631
# [26] = system: SF-268
# [27] = system: SF-539
# [28] = system: SK-MEL-28
# [29] = system: SK-MEL-2
# [30] = system: SK-OV-3
# [31] = system: SNB-75
# [32] = system: SNB-78
# [33] = system: SR
# [34] = system: UACC-62
# [35] = system: UO-31
# [36] = system: A498
# [37] = system: A549
# [38] = system: ACHN
# [39] = system: EKVX
# [40] = system: HCT-15
# [41] = system: HOP-18
# [42] = system: HT-29
# [43] = system: KM-20L2
# [44] = system: OVCAR-8
# [45] = system: RXF 393
# [46] = system: SF-295
# [47] = system: SK-MEL-5
# [48] = system: SN12C
# [49] = system: SNB-19
# [50] = system: SW-620
# [51] = system: U-251
# [52] = system: UACC-257
# [53] = system: XF498
# [54] = system: KM12
# [55] = system: LOX IMVI
# [56] = system: NCI-H460
# [57] = system: OVCAR-3
# [58] = system: OVCAR-5
# [59] = system: TK-10
smiles,measurement,setting,value
Cc1c2n(c3ccccc13)CC1CON(C)C21 (stereo not drawn),GI50,[1],> 100 µM (inactive)
same,GI50,[2],> 100 µM (inactive)
same,GI50,[3],> 100 µM (inactive)
same,GI50,[4],> 100 µM (inactive)
same,GI50,[5],> 100 µM (inactive)
same,GI50,[6],> 100 µM (inactive)
same,GI50,[7],> 100 µM (inactive)
same,GI50,[8],> 100 µM (inactive)
same,GI50,[9],> 100 µM (inactive)
same,GI50,[10],> 100 µM (inactive)
same,GI50,[11],> 100 µM (inactive)
same,GI50,[12],> 100 µM (inactive)
same,GI50,[13],> 100 µM (inactive)
same,GI50,[14],> 100 µM (inactive)
same,GI50,[15],> 100 µM (inactive)
same,GI50,[16],> 100 µM (inactive)
same,GI50,[17],> 100 µM (inactive)
same,GI50,[18],> 100 µM (inactive)
same,GI50,[19],> 100 µM (inactive)
same,GI50,[20],> 100 µM (inactive)
same,GI50,[21],> 100 µM (inactive)
same,GI50,[22],> 100 µM (inactive)
same,GI50,[23],> 100 µM (inactive)
same,GI50,[24],> 100 µM (inactive)
same,GI50,[25],> 100 µM (inactive)
same,GI50,[26],> 100 µM (inactive)
same,GI50,[27],> 100 µM (inactive)
same,GI50,[28],> 100 µM (inactive)
same,GI50,[29],> 100 µM (inactive)
same,GI50,[30],> 100 µM (inactive)
same,GI50,[31],> 100 µM (inactive)
same,GI50,[32],> 100 µM (inactive)
same,GI50,[33],> 100 µM (inactive)
same,GI50,[34],> 100 µM (inactive)
same,GI50,[35],> 100 µM (inactive)
CCn1c2ccccc2c2ccc3c(c21)C(=O)c1ccccc1C3=O,GI50,[1],> 100 µM (inactive)
same,GI50,[36],> 100 µM (inactive)
same,GI50,[37],> 100 µM (inactive)
same,GI50,[38],> 100 µM (inactive)
same,GI50,[3],74.3 µM (inactive)
same,GI50,[4],55.8 µM (inactive)
same,GI50,[5],> 100 µM (inactive)
same,GI50,[6],> 100 µM (inactive)
same,GI50,[7],> 100 µM (inactive)
same,GI50,[39],44.8 µM (inactive)
same,GI50,[8],> 100 µM (inactive)
same,GI50,[9],> 100 µM (inactive)
same,GI50,[40],> 100 µM
same,GI50,[10],36.8 µM (inactive)
same,GI50,[41],> 100 µM (inactive)
same,GI50,[11],> 100 µM (inactive)
same,GI50,[12],82.2 µM (inactive)
same,GI50,[42],> 100 µM (inactive)
same,GI50,[13],> 100 µM (inactive)
same,GI50,[14],> 100 µM (inactive)
same,GI50,[43],> 100 µM (inactive)
same,GI50,[15],> 100 µM (inactive)
same,GI50,[16],> 100 µM (inactive)
same,GI50,[17],24.2 µM (inactive)
same,GI50,[18],61.5 µM (inactive)
same,GI50,[19],81.1 µM (inactive)
same,GI50,[20],> 100 µM (inactive)
same,GI50,[21],> 100 µM (inactive)
same,GI50,[22],> 100 µM (inactive)
same,GI50,[23],> 100 µM (inactive)
same,GI50,[44],> 100 µM (inactive)
same,GI50,[24],> 100 µM (inactive)
same,GI50,[45],84.1 µM (inactive)
same,GI50,[26],> 100 µM (inactive)
same,GI50,[46],91.2 µM (inactive)
same,GI50,[27],> 100 µM (inactive)
same,GI50,[28],> 100 µM (inactive)
same,GI50,[47],76.6 µM (inactive)
same,GI50,[30],> 100 µM (inactive)
same,GI50,[48],> 100 µM (inactive)
same,GI50,[49],> 100 µM (inactive)
same,GI50,[31],> 100 µM (inactive)
same,GI50,[32],> 100 µM (inactive)
same,GI50,[33],10.4 µM (inactive)
same,GI50,[50],> 100 µM (inactive)
same,GI50,[51],> 100 µM (inactive)
same,GI50,[52],> 100 µM (inactive)
same,GI50,[34],> 100 µM (inactive)
same,GI50,[35],> 100 µM (inactive)
same,GI50,[53],> 100 µM (inactive)
CCOC(=N)CC(=O)Nc1ccccc1,GI50,[1],> 46.5 µM (inactive)
same,GI50,[36],> 46.5 µM (inactive)
same,GI50,[37],> 46.5 µM (inactive)
same,GI50,[38],> 46.5 µM (inactive)
same,GI50,[2],> 100 µM (inactive)
same,GI50,[3],19.4 µM (inactive)
same,GI50,[4],> 46.5 µM (inactive)
same,GI50,[5],> 46.5 µM (inactive)
same,GI50,[6],35.8 µM (inactive)
same,GI50,[7],> 46.5 µM (inactive)
same,GI50,[39],> 100 µM (inactive)
same,GI50,[8],> 31.6 µM (inactive)
same,GI50,[9],> 46.5 µM (inactive)
same,GI50,[40],32.8 µM
same,GI50,[10],> 100 µM (inactive)
same,GI50,[41],> 31.6 µM (inactive)
same,GI50,[11],> 46.5 µM (inactive)
same,GI50,[12],> 10 µM (inactive)
same,GI50,[42],> 46.5 µM (inactive)
same,GI50,[13],> 46.5 µM (inactive)
same,GI50,[14],22.1 µM (inactive)
same,GI50,[43],> 100 µM (inactive)
same,GI50,[54],> 46.5 µM (inactive)
same,GI50,[55],47.5 µM (inactive)
same,GI50,[15],> 46.5 µM (inactive)
same,GI50,[16],> 46.5 µM (inactive)
same,GI50,[17],> 46.5 µM (inactive)
same,GI50,[18],> 31.6 µM (inactive)
same,GI50,[19],> 46.5 µM (inactive)
same,GI50,[20],> 31.6 µM (inactive)
same,GI50,[21],> 46.5 µM (inactive)
same,GI50,[56],> 46.5 µM (inactive)
same,GI50,[22],> 100 µM (inactive)
same,GI50,[57],> 31.6 µM (inactive)
same,GI50,[23],34.5 µM (inactive)
same,GI50,[58],> 100 µM (inactive)
same,GI50,[44],> 21.5 µM (inactive)
same,GI50,[24],15.9 µM (inactive)
same,GI50,[45],> 46.5 µM (inactive)
same,GI50,[26],> 46.5 µM (inactive)
same,GI50,[46],> 100 µM (inactive)
same,GI50,[27],> 46.5 µM (inactive)
same,GI50,[28],> 46.5 µM (inactive)
same,GI50,[29],> 31.6 µM (inactive)
same,GI50,[47],> 46.5 µM (inactive)
same,GI50,[30],> 100 µM (inactive)
same,GI50,[48],> 46.5 µM (inactive)
same,GI50,[49],> 100 µM (inactive)
same,GI50,[31],> 46.5 µM (inactive)
same,GI50,[32],> 46.5 µM (inactive)
same,GI50,[33],> 39.9 µM (inactive)
same,GI50,[50],36.9 µM (inactive)
same,GI50,[59],> 46.5 µM (inactive)
same,GI50,[51],> 100 µM (inactive)
same,GI50,[52],> 46.5 µM (inactive)
same,GI50,[34],> 100 µM (inactive)
same,GI50,[35],> 46.5 µM (inactive)
same,GI50,[53],> 43.9 µM (inactive)
